Source: patent US20240132467A1, “BENZIMIDAZOLE DERIVATIVES FOR TREATING RESPIRATORY DISEASE” (TMEM16A Limited, priority 2020, published 2024)

Target: T1, human TMEM16A (TMEM16Aabc variant) (Homo sapiens, UniProt Q5XXA6, DEL476-501)
T1 sequence (Q5XXA6 with tags, fused parts or gaps isoform Q5XXA6-5 DEL539-564): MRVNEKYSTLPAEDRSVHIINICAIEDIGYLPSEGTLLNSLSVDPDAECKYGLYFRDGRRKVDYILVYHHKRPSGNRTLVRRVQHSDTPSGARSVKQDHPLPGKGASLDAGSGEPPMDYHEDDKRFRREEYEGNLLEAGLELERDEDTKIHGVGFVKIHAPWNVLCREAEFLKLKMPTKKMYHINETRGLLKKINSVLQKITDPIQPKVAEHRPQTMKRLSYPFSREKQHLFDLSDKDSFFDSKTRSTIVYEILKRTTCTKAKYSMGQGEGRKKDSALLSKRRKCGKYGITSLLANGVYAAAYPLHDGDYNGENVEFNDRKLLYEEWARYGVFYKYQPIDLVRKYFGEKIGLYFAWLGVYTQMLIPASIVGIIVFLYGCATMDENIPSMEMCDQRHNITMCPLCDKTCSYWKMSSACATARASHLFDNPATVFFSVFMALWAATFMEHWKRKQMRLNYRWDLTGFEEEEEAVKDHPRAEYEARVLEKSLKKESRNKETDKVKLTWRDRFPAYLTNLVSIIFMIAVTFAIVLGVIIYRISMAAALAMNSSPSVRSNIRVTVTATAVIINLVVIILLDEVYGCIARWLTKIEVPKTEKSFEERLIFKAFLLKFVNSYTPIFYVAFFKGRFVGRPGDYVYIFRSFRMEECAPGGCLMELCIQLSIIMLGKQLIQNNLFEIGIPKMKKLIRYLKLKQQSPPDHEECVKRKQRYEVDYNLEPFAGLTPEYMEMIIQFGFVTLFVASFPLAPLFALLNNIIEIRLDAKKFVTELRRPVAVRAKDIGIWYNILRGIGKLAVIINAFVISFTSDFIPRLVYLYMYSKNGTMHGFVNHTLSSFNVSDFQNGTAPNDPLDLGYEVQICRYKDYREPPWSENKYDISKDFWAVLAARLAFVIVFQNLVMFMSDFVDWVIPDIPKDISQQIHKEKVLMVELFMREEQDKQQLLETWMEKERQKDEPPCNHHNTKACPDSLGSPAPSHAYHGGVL
Assay: Automated whole-cell patch clamp (Qpatch) TMEM16A potentiator assay in FRT cells stably expressing human TMEM16A
Type: cell-based
Conditions: for activation at 3.33 µM: 3.33 μM test compound, percentage increase of baseline TMEM16A current at +70 mV, intracellular calcium at EC20, read-out: % Potentiation @ 3.33 μM Avg; for EC50: cumulative concentration response, 5 min per concentration, whole-cell patch clamp
Description: Automated whole-cell patch clamp assay to detect TMEM16A activity in recombinant cells Cell culture and preparation
Fisher rat thyroid (FRT) cells stably expressing human TMEM16A (TMEM16Aabc variant; Dr Luis Galietta, Insituto Giannina, Italy) were cultured in T-75 flasks in Hams F-12 media with Coon's modification (Sigma) supplemented with 10% (v/v) foetal bovine serum, penicillin-streptomycin (10,000 U/mL/10000 μg/mL), G-418 (750μg/mL), L-glutamine (2 mM) and sodium bicarbonate solution (7.5% v/v). At —90% confluence cells were harvested for experiments by detachment with a 2:1 (v/v) mixture of Detachin (BMS Biotechnology) and 0.25% (w/v) trypsin-EDTA. Cells were diluted to a density of 3.5-4.5×10^6 cells/mL with media consisting of CHO-S-SFM II (Sigma), 25 mM HEPES (Sigma) and Soy bean trypsin inhibitor (Sigma).
Whole-Cell Patch Clamp Recording
FRT-TMEM16A cells were whole-cell patch clamped using an automated planar patch clamp system (Qpatch, Sophion). Briefly, once high resistance (GOhm) seals were established between the cells and the planar recording array the patch was ruptured using suction pulses to establish the whole-cell recording configuration of the patch clamp technique. The assay employed the following solutions (all reagents Sigma):
Intracellular solution (mM): N-methyl-D-glucamine 130, CaCl2 18.2, MgCl2 1, HEPES 10, EGTA 10, BAPTA 20, Mg-ATP 2, pH 7.25, 325mOsm with sucrose.
Extracellular solution (mM): N-methyl-D-glucamine 130, CaCl2 2, MgCl2 1, HEPES 10, pH 7.3, 320 mOsm with sucrose.
The intracellular solution buffers intracellular calcium at levels required to give —20% activation of the maximal TMEM16A mediated current (EC20 for calcium ions). Cells were voltage clamped at a holding potential of -70mV and a combined voltage step (to +70 mV)/ramp (−90 my to +90 mV) was applied at 0.05 Hz. After a period of current stabilisation test compounds, solubilised in 100% (v/v) DMSO and subsequently diluted into extracellular solution, were applied to generate a cumulative concentration response curve. Each concentration of test compound was incubated for 5 minutes before addition of the next concentration. After the final concentration was tested a supramaximal concentration of either a known active positive modulator or the TMEM16A inhibitor, CaCCinhA01 (Del La Fuente et al, 2008) was added to define the upper and lower limits of the assay.
Compound activity was quantified by measuring the increase in current upon compound addition and expressing this as a percentage increase of baseline TMEM16A current level. Percentage increases in current were determined for each concentration and the data plotted as a function of concentration using either the Qpatch software or Graphpad Prism v6.05 providing the concentration which gave 50% of its maximal effect (EC50) and maximum efficacy (percentage of baseline increase).
In FIG. 1, IBL equals baseline current, km equals the peak current during test compound concentration 1 incubation period and so on.
Peak TMEM16A current at +70mV was plotted as a function of time over the assay period. Baseline current (IBL) was measured after a period of stabilisation. The increase in current for each compound addition was determined by taking the peak current during the incubation period and subtracting the current from the previous recording period and then expressing this as a percentage of the baseline current. For test compound concentration 1 in FIG. 1 this is:
For each additional concentration tested the increase in current was determined by subtracting the current from the previous incubation period and normalising the baseline value—for test concentration 2 in FIG. 1 this is:
The values for each test concentration were plotted as a cumulative function of concentration e.g. for test concentration two this would be the sum of the peak changes measured during concentration one plus concentration two.

activation at 3.33 µM [%]	EC50 [nM]	Structure (SMILES)
127	250	O=C(CC1CCCCC1)Nc1ccc2[nH]c(Cc3ccccc3)nc2c1 [Example 1.1, N-(2-Benzyl-1H-benzimidazol-5-yl)-2-cyclohexyl-acetamide]
111	225	O=C(NCC1CCCCC1)c1ccc2[nH]c(Cc3ccccc3)nc2c1 [Example 1.2, 2-Benzyl-N-(cyclohexylmethyl)-1H-benzimidazole-5-carboxamide]
146	441	O=C(NCC12CC3CC(CC(C3)C1)C2)c1ccc2[nH]c(Cc3ccccc3)nc2c1 [Example 1.2.1, N-(1-Adamantylmethyl)-2-benzyl-1H-benzimidazole-5-carboxamide]
144	203	CC1(CNC(=O)c2ccc3[nH]c(Cc4ccccc4)nc3c2)CCCC1 [Example 1.2.2, 2-Benzyl-N-I(1-methylcyclopentyl)methylj-1H-benzimidazole-5-carboxamide]
153	792	C[C@@H](NC(=O)c1ccc2[nH]c(Cc3ccccc3)nc2c1)C1CCCCC1 [Example 1.2.3, 2-Benzyl-N-[(1R)-1-cyclohexylethyl]-1H-benzimidazole-5-carboxamide]
78.5	563	CCC(C)(C)c1nc2ccc(C(=O)NCC3CCCCCC3)cc2[nH]1 [Example 1.3, N-(Cycloheptylmethyl)-2-(1,1-dimethylpropyl)-3H-benzimidazole-5-carboxamide]
135	425	O=C(NCC1CCCCCC1)c1ccc2[nH]c(CC3(O)CCCCC3)nc2c1 [Example 1.3.1, N-(Cycloheptylmethyl)-2-[(1-hydroxycyclohexyl)methyl]-1H-benzimidazole-5-carboxamide]
92.9	581	O=C(NCC1CCCCCC1)c1ccc2[nH]c(C(CO)c3ccccc3)nc2c1 (stereo not drawn) [Example 1.3.2, N-(Cycloheptylmethyl)-2-(2-hydroxy-1-phenyl-ethyl)-1H-benzimidazole-5-carboxamide]
81.3	384	O=C(NCC1CCCCC1)c1ccc2nc(Cc3cccc(O)c3)[nH]c2c1 [Example 1.4, N-(Cyclohexylmethyl)-2-[(3-hydroxyphenyl)methyl]-3H-benzimidazole-5-carboxamide]
162	1080	O=C(CC12CC3CC(CC(C3)C1)C2)Nc1ccc2[nH]c(Cc3cccc(O)c3)nc2c1 [Example 1.5, 2-(1-Adamantyl)-N-12-[(3-hydroxyphenyl)methyl]-1H-benzimidazol-5-yljacetamide]
105	222	CC1(CC(=O)Nc2ccc3[nH]c(Cc4cccc(O)c4)nc3c2)CCCCC1 [Example 1.5.1, N-[2-[(3-hydroxyphenyl)methyl]-1H-benzimidazol-5-yl]-2-(1-methylcyclohexyl) acetamide]
136	227	O=C(CC1CCCCCC1)Nc1ccc2[nH]c(Cc3cccc(O)c3)nc2c1 [Example 1.5.2, 2-Cycloheptyl-N-[2-[(3-hydroxyphenyl)methyl]-1H-benzimidazol-5-yl]acetamide]
93.1	566	O=C(CC1CCCCC1)Nc1ccc2[nH]c(Cc3cccc(O)c3)nc2c1 [Example 1.5.3, 2-Cyclohexyl-N-12-[(3-hydroxyphenyl)methyl]-1H-benzimidazol-5-yljacetamide]
219	834	O=C(CC12CC3CC(CC(C3)C1)C2)Nc1ccc2[nH]c(Cc3ccccc3)nc2c1 [Example 1.5.4, 2-(1-Adamantyl)-N-(2-benzyl-1H-benzimidazol-5-yl)acetamide]
83.9	231	O=C(CC1(O)C2CC3CC(C2)CC1C3)Nc1ccc2[nH]c(Cc3ccccc3)nc2c1 (stereo not drawn) [Example 1.6]
136	587	COc1cccc(Cc2nc3cc(NC(=O)CC4C5CC6CC(C5)CC4C6)ccc3[nH]2)c1 (stereo not drawn) [Example 1.7, 2-(2-Adamantyl)-N-12-[(3-methoxyphenyl)methyl]-1H-benzimidazol-5-yljacetamide]
157	273	C[C@@H](c1ccccc1)c1nc2cc(NC(=O)CC3C4CC5CC(C4)CC3C5)ccc2[nH]1 (stereo partly drawn) [Example 1.7.1, 2-(2-Adamantyl)-N[2-[(1 S)-1-phenylethyl]-1H-benzimidazol-5-yl]acetamide]
143	294	C[C@H](c1ccccc1)c1nc2cc(NC(=O)CC3C4CC5CC(C4)CC3C5)ccc2[nH]1 (stereo partly drawn) [Example 1.7.2, 2-(2-Adamantyl)-N[2-[(1R)-1-phenylethyl]-1H-benzimidazol-5-yl]acetamide]
114	1120	CC(C)(C)OC(=O)NCc1nc2cc(NC(=O)CC34CC5CC(CC(C5)C3)C4)ccc2[nH]1 [Example 1.7.3, tert-Butyl N-[[5-[[2-(1-adamantyl)acetyl]amino]-1H-benzimidazol-2-yl]methyl]carbamate]
148	1310	COc1ncccc1Cc1nc2cc(NC(=O)CC34CC5CC(CC(C5)C3)C4)ccc2[nH]1 [Example 1.7.4, 2-(1-Adamantyl)-N-12-[(2-methoxy-3-pyridyl)methyl]-1H-benzimidazol-5-yljacetamide]
126	260	O=C(CC1C2CC3CC(C2)CC1C3)Nc1ccc2[nH]c(Cc3cccc(O)c3)nc2c1 (stereo not drawn) [Example 1.8, 2-(2-Adamantyl)-N-12-[(3-hydroxyphenyl)methyl]-1H-benzimidazol-5-yljacetamide]
52.1		CC(C)(C)c1nc2cc(C(=O)NCc3cc(Cl)ccc3O)ccc2[nH]1 [Example 1.9, 2-tert-Butyl-N-[(5-chloro-2-hydroxy-phenyl)methyl]-1H-benzimidazole-5-carboxamide]
110	892	CC(C)(C)OC(=O)NCc1nc2cc(C(=O)NCC3CCCCCC3)ccc2[nH]1 [Example 1.10, tert-Butyl N-[[5-(cycloheptylmethylcarbamoyl)-1H-benzimidazol-2-yl]methyl] carbamate]
